Assay results published in the supplement of paper PMC10307832.

Experiments:
Test in all cases: relative viability (nuclei count vs DMSO), 5 days (fraction); higher = more cells survive
[1] = system: NCI-H1793
In short: (§1)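 Values are medians from duplicate plates. Each reflects relative viability, defined as the nuclei count of treated wells over that of vehicle wells. Lung cancer cell lines in 1536-well plates were pin-tool dosed one day after seeding with one drug alone or with a fixed anchor-drug dose plus five library-drug doses (not always all listed) in √10 steps, then fixed, stained and imaged at 4× after 5 days.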

[2] = system: LCLC-97TM1
In short: as §1

[3] = system: NCI-H1993
In short: as §1

[4] = system: PC-3 [JPC-3]
In short: as §1

[5] = system: NCI-H2009
In short: as §1

[6] = system: NCI-H520
In short: as §1

[7] = system: NCI-H1755
In short: as §1

[8] = system: NCI-H647
In short: as §1

[9] = system: NCI-H460
In short: as §1

[10] = system: SW 1573
In short: as §1

[11] = system: SK-LU-1
In short: as §1

[12] = system: NCI-H1944
In short: as §1

[13] = system: ABC-1
In short: as §1

[14] = system: EMC-BAC-2
In short: as §1

[15] = system: NCI-H441
In short: as §1

[16] = system: NCI-H2126
In short: as §1

[17] = system: NCI-H2347
In short: as §1

[18] = system: PC-14
In short: as §1

[19] = system: NCI-H1666
In short: as §1

[20] = system: NCI-H2170
In short: as §1

[21] = system: NCI-H1975
In short: as §1

[22] = system: NCI-H1355
In short: as §1

[23] = system: NCI-H727
In short: as §1

Compound `O=C(O)CCCCC(CCSCc1ccccc1)SCc1ccccc1` (centres undefined) [CPI-613] + CCNC(=O)c1noc(-c2cc(C(C)C)c(O)cc2O)c1-c1ccc(CN2CCOCC2)cc1 [Luminespib] (partner 0.01 µM) has a relative viability ([1]; first compound 5 µM) of 0.252, a relative viability ([1]; first compound 15.81 µM) of 0.372 and a relative viability ([1]; first compound 50 µM) of 0.175. It also gave a relative viability ([1]; first compound 158.11 µM) of 0.131, a relative viability ([1]; first compound 500 µM) of 0.0028 and a relative viability ([2]; first compound 5 µM) of 0.641. For the same compound, the relative viability ([2]; first compound 15.81 µM) was 0.71, the relative viability ([2]; first compound 50 µM) was 0.737 and the relative viability ([2]; first compound 158.11 µM) was 0.188. The relative viability ([2]; first compound 500 µM) was 0.0176, the relative viability ([3]; first compound 5 µM) was 0.799 and the relative viability ([3]; first compound 15.81 µM) was 0.296. The relative viability ([3]; first compound 50 µM) was 0.917, the relative viability ([3]; first compound 158.11 µM) was 0.611 and the relative viability ([3]; first compound 500 µM) was 0.437. It also gave a relative viability ([4]; first compound 5 µM) of 0.594, a relative viability ([4]; first compound 15.81 µM) of 0.578 and a relative viability ([4]; first compound 50 µM) of 0.627. The relative viability ([4]; first compound 158.11 µM) was 0.563, the relative viability ([4]; first compound 500 µM) was 0.48 and the relative viability ([5]; first compound 5 µM) was 1.06. The relative viability ([5]; first compound 15.81 µM) was 0.954, the relative viability ([5]; first compound 50 µM) was 0.936 and the relative viability ([5]; first compound 158.11 µM) was 0.179. The relative viability ([5]; first compound 500 µM) was 0.012, the relative viability ([6]; first compound 5 µM) was 0.196 and the relative viability ([6]; first compound 15.81 µM) was 0.204. For the same compound, the relative viability ([6]; first compound 50 µM) was 0.214, the relative viability ([6]; first compound 158.11 µM) was 0.197 and the relative viability ([6]; first compound 500 µM) was 0.181. It also gave a relative viability ([7]; first compound 5 µM) of 0.613, a relative viability ([7]; first compound 15.81 µM) of 0.508 and a relative viability ([7]; first compound 50 µM) of 0.24. For the same compound, the relative viability ([7]; first compound 158.11 µM) was 0.34, the relative viability ([7]; first compound 500 µM) was 0.185 and the relative viability ([8]; first compound 5 µM) was 0.133. For the same compound, the relative viability ([8]; first compound 15.81 µM) was 0.152, the relative viability ([8]; first compound 50 µM) was 0.113 and the relative viability ([8]; first compound 158.11 µM) was 0.144. It also gave a relative viability ([8]; first compound 500 µM) of 0.119, a relative viability ([9]; first compound 5 µM) of 0.0325 and a relative viability ([9]; first compound 15.81 µM) of 0.0279. For the same compound, the relative viability ([9]; first compound 50 µM) was 0.0372, the relative viability ([9]; first compound 158.11 µM) was 0.0145 and the relative viability ([9]; first compound 500 µM) was 0.0162. The relative viability ([10]; first compound 5 µM) was 0.254, the relative viability ([10]; first compound 15.81 µM) was 0.295 and the relative viability ([10]; first compound 50 µM) was 0.138. The relative viability ([10]; first compound 158.11 µM) was 0.0967, the relative viability ([10]; first compound 500 µM) was 0.0725 and the relative viability ([11]; first compound 5 µM) was 0.205. The relative viability ([11]; first compound 15.81 µM) was 0.2, the relative viability ([11]; first compound 50 µM) was 0.198 and the relative viability ([11]; first compound 158.11 µM) was 0.128. It also gave a relative viability ([11]; first compound 500 µM) of 0.101, a relative viability ([12]; first compound 5 µM) of 0.748 and a relative viability ([12]; first compound 15.81 µM) of 0.701. The relative viability ([12]; first compound 50 µM) was 0.757, the relative viability ([12]; first compound 158.11 µM) was 0.409 and the relative viability ([12]; first compound 500 µM) was 0.0599. For the same compound, the relative viability ([13]; first compound 5 µM) was 0.629, the relative viability ([13]; first compound 50 µM) was 0.776 and the relative viability ([13]; first compound 158.11 µM) was 0.185. The relative viability ([13]; first compound 500 µM) was 0.183, the relative viability ([14]; first compound 5 µM) was 1.15 and the relative viability ([14]; first compound 15.81 µM) was 1.08. For the same compound, the relative viability ([14]; first compound 50 µM) was 1.16, the relative viability ([14]; first compound 158.11 µM) was 0.396 and the relative viability ([14]; first compound 500 µM) was 0.0424. The relative viability ([15]; first compound 5 µM) was 0.36, the relative viability ([15]; first compound 15.81 µM) was 0.38 and the relative viability ([15]; first compound 50 µM) was 0.289. It also gave a relative viability ([15]; first compound 158.11 µM) of 0.124, a relative viability ([15]; first compound 500 µM) of 0.0495 and a relative viability ([16]; first compound 5 µM) of 0.906. For the same compound, the relative viability ([16]; first compound 15.81 µM) was 0.83, the relative viability ([16]; first compound 50 µM) was 0.85 and the relative viability ([16]; first compound 158.11 µM) was 0.223. The relative viability ([16]; first compound 500 µM) was 0.053, the relative viability ([17]; first compound 5 µM) was 0.279 and the relative viability ([17]; first compound 15.81 µM) was 0.344. The relative viability ([17]; first compound 50 µM) was 0.746, the relative viability ([17]; first compound 158.11 µM) was 0.548 and the relative viability ([17]; first compound 500 µM) was 0.833. It also gave a relative viability ([18]; first compound 5 µM) of 0.158, a relative viability ([18]; first compound 15.81 µM) of 0.185 and a relative viability ([18]; first compound 50 µM) of 0.167. The relative viability ([18]; first compound 158.11 µM) was 0.129, the relative viability ([18]; first compound 500 µM) was 0.0407 and the relative viability ([19]; first compound 5 µM) was 0.992. It also gave a relative viability ([19]; first compound 15.81 µM) of 1.01, a relative viability ([19]; first compound 50 µM) of 1.12 and a relative viability ([19]; first compound 158.11 µM) of 0.223. It also gave a relative viability ([19]; first compound 500 µM) of 0.131, a relative viability ([20]; first compound 5 µM) of 0.754 and a relative viability ([20]; first compound 15.81 µM) of 0.573. It also gave a relative viability ([20]; first compound 50 µM) of 0.524, a relative viability ([20]; first compound 158.11 µM) of 0.196 and a relative viability ([20]; first compound 500 µM) of 0.0909. The relative viability ([21]; first compound 5 µM) was 0.173, the relative viability ([21]; first compound 15.81 µM) was 0.171 and the relative viability ([21]; first compound 50 µM) was 0.194. For the same compound, the relative viability ([21]; first compound 158.11 µM) was 0.141, the relative viability ([21]; first compound 500 µM) was 0.28 and the relative viability ([22]; first compound 5 µM) was 0.692. The relative viability ([22]; first compound 15.81 µM) was 0.701, the relative viability ([22]; first compound 50 µM) was 0.691 and the relative viability ([22]; first compound 158.11 µM) was 0.25. The relative viability ([22]; first compound 500 µM) was 0.35, the relative viability ([23]; first compound 5 µM) was 0.274 and the relative viability ([23]; first compound 15.81 µM) was 0.641. For the same compound, the relative viability ([23]; first compound 50 µM) was 0.286, the relative viability ([23]; first compound 158.11 µM) was 0.188 and the relative viability ([23]; first compound 500 µM) was 0.115.
